Experimental data from paper PMC10648541, “Design, Synthesis, and Antiproliferative Activity of Selective Histone Deacetylases 6 Inhibitors Containing a Tetrahydropyridopyrimidine Scaffold” (Molecules, 2023).
Entries after “also recorded” stand apart in the source; their conditions may differ.

Legend:
HDAC1 = target: T1, HDAC1 (Homo sapiens, UniProt Q13547); assay: In vitro HDAC enzyme assay (Reaction Biology Corporation), HDAC1; format: biochemical; settings: Table 1; duplicate, SD < 15%
T1 construct: purchased Reaction Biology Corporation

HDAC5 = target: T2, HDAC5 (Homo sapiens, UniProt Q9UQL6); assay: In vitro HDAC enzyme assay (Reaction Biology Corporation), HDAC5; format: biochemical; settings: Table 2 isozyme screen; duplicate, SD < 15%
T2 construct: purchased Reaction Biology Corporation

HDAC8 = target: T3, HDAC8 (Homo sapiens, UniProt Q9BY41); assay: In vitro HDAC enzyme assay (Reaction Biology Corporation), HDAC8; format: biochemical; settings: Table 2 isozyme screen; duplicate, SD < 15%
T3 construct: purchased Reaction Biology Corporation

HL60 = assay: Antiproliferative assay (Alamar blue, 72 h), HL60; format: cell-based; settings: Homo sapiens, HL-60, HL60 cells, three independent experiments, SD < 10%, read-out: Antiproliferative effect IC50, HL60
acetylated α-tubulin = assay: Western blot, acetylated α-tubulin in RPMI-8226 cells; format: cell-based, human; settings: 24 h, 1, 5, and 10 μM
Experimental: RPMI-8226 cells (1 × 10^6) were seeded overnight and incubated with compound 8f for 24 h on indicated concentrations. Cell extract was prepared by lysing cultured cells with a mammalian protein extraction reagent supplemented with EDTA-free protease inhibitor for 15 min. SDS-PAGE and immunoblot analysis were conducted as described. Antibodies for Ac-H3 (abcom, AB32129) and Ac-ɑ-tubulin (Cell Signaling, 2144) were used.

[1] = test system: 59 different tumor cell lines; assay: NCI-60 antiproliferative evaluation, whole panel; format: cell-based; settings: 10 μM, of 59 tumor cell lines
Excerpt: (§1) Then, 8f was submitted to NCI for antiproliferative evaluation against 59 different tumor cell lines. The cancer types of the NCI-60 program include leukemia, non-small cell lung cancer (NSCLC), colon cancer, CNS cancer, melanoma, ovary cancer, renal cancer, prostate cancer, and breast cancer.

CCRF-CEM = assay: NCI-60 antiproliferative screening, CCRF-CEM; format: cell-based; settings: Homo sapiens, CCRF-CEM (Leukemia), read-out: Inhibition% values at 10 μM concentration
Excerpt: as §1

K-562 = assay: NCI-60 antiproliferative screening, K-562; format: cell-based; settings: Homo sapiens, K562, K-562 (Leukemia), read-out: Inhibition% values at 10 μM concentration
Excerpt: as §1

RPMI-8226 = assay: NCI-60 antiproliferative screening, RPMI-8226; format: cell-based; settings: Homo sapiens, RPMI-8226 (Leukemia), read-out: Inhibition% values at 10 μM concentration
Excerpt: as §1

NCI-H226 = assay: NCI-60 antiproliferative screening, NCI-H226; format: cell-based; settings: Homo sapiens, NCI-H226 (Non-Small Cell Lung Cancer), read-out: Inhibition% values at 10 μM concentration
Excerpt: as §1

NCI-H322M = assay: NCI-60 antiproliferative screening, NCI-H322M; format: cell-based; settings: Homo sapiens, NCI-H322M (Non-Small Cell Lung Cancer), read-out: Inhibition% values at 10 μM concentration
Excerpt: as §1

NCI-H460 = assay: NCI-60 antiproliferative screening, NCI-H460; format: cell-based; settings: Homo sapiens, NCI-H460 (Non-Small Cell Lung Cancer), read-out: Inhibition% values at 10 μM concentration
Excerpt: as §1

NCI-H522 = assay: NCI-60 antiproliferative screening, NCI-H522; format: cell-based; settings: Homo sapiens, NCI-H522 (Non-Small Cell Lung Cancer), read-out: Inhibition% values at 10 μM concentration
Excerpt: as §1

HCC-2998 = assay: NCI-60 antiproliferative screening, HCC-2998; format: cell-based; settings: Homo sapiens, HCC-2998 (Colon Cancer), read-out: Inhibition% values at 10 μM concentration
Excerpt: as §1

HCT-15 = assay: NCI-60 antiproliferative screening, HCT-15; format: cell-based; settings: Homo sapiens, HCT-15 (Colon Cancer), read-out: Inhibition% values at 10 μM concentration
Excerpt: as §1

SF-539 = assay: NCI-60 antiproliferative screening, SF-539; format: cell-based; settings: Homo sapiens, SF-539 (CNS Cancer), read-out: Inhibition% values at 10 μM concentration
Excerpt: as §1

SNB-19 = assay: NCI-60 antiproliferative screening, SNB-19; format: cell-based; settings: Homo sapiens, SNB-19 (CNS Cancer), read-out: Inhibition% values at 10 μM concentration
Excerpt: as §1

U251 = assay: NCI-60 antiproliferative screening, U251; format: cell-based; settings: Homo sapiens, U-251, U251 (CNS Cancer), read-out: Inhibition% values at 10 μM concentration
Excerpt: as §1

MALME-3M = assay: NCI-60 antiproliferative screening, MALME-3M; format: cell-based; settings: Homo sapiens, MALME-3M (Melanoma), read-out: Inhibition% values at 10 μM concentration
Excerpt: as §1

MDA-MB-435 = assay: NCI-60 antiproliferative screening, MDA-MB-435; format: cell-based; settings: Homo sapiens, MDA-MB-435 (Melanoma), read-out: Inhibition% values at 10 μM concentration
Excerpt: as §1

SK-MEL-28 = assay: NCI-60 antiproliferative screening, SK-MEL-28; format: cell-based; settings: Homo sapiens, SK-MEL-28 (Melanoma), read-out: Inhibition% values at 10 μM concentration
Excerpt: as §1

UACC-257 = assay: NCI-60 antiproliferative screening, UACC-257; format: cell-based; settings: Homo sapiens, read-out: Inhibition% values at 10 μM concentration
Excerpt: as §1

OVCAR-5 = assay: NCI-60 antiproliferative screening, OVCAR-5; format: cell-based; settings: Homo sapiens, OVCAR-5 (Ovarian Cancer), read-out: Inhibition% values at 10 μM concentration
Excerpt: as §1

OVCAR-8 = assay: NCI-60 antiproliferative screening, OVCAR-8; format: cell-based; settings: Homo sapiens, OVCAR-8 (Ovarian Cancer), read-out: Inhibition% values at 10 μM concentration
Excerpt: as §1

CAKI-1 = assay: NCI-60 antiproliferative screening, CAKI-1; format: cell-based; settings: Homo sapiens, CAKI-1 (Renal Cancer), read-out: Inhibition% values at 10 μM concentration
Excerpt: as §1

UO-31 = assay: NCI-60 antiproliferative screening, UO-31; format: cell-based; settings: Homo sapiens, UO-31 (Renal Cancer), read-out: Inhibition% values at 10 μM concentration
Excerpt: as §1

DU-145 = assay: NCI-60 antiproliferative screening, DU-145; format: cell-based; settings: Homo sapiens, DU-145 (Prostate Cancer), read-out: Inhibition% values at 10 μM concentration
Excerpt: as §1

HS 578T = assay: NCI-60 antiproliferative screening, HS 578T; format: cell-based; settings: Homo sapiens, HS 578T (Breast Cancer), read-out: Inhibition% values at 10 μM concentration
Excerpt: as §1

BT-549 = assay: NCI-60 antiproliferative screening, BT-549; format: cell-based; settings: Homo sapiens, BT-549 (Breast Cancer), read-out: Inhibition% values at 10 μM concentration
Excerpt: as §1

T3 sequence (Q9BY41 whole entry): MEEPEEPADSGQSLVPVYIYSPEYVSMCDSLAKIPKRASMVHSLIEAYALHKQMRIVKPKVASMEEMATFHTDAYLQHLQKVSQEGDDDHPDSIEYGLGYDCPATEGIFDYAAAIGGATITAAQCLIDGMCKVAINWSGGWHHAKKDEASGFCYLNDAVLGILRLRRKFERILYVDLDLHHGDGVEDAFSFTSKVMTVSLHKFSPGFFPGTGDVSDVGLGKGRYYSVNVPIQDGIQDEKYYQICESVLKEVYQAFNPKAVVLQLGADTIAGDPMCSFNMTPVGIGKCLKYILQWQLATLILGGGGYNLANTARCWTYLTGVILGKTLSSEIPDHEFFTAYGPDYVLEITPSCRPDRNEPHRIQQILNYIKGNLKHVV
T2 sequence (Q9UQL6 whole entry): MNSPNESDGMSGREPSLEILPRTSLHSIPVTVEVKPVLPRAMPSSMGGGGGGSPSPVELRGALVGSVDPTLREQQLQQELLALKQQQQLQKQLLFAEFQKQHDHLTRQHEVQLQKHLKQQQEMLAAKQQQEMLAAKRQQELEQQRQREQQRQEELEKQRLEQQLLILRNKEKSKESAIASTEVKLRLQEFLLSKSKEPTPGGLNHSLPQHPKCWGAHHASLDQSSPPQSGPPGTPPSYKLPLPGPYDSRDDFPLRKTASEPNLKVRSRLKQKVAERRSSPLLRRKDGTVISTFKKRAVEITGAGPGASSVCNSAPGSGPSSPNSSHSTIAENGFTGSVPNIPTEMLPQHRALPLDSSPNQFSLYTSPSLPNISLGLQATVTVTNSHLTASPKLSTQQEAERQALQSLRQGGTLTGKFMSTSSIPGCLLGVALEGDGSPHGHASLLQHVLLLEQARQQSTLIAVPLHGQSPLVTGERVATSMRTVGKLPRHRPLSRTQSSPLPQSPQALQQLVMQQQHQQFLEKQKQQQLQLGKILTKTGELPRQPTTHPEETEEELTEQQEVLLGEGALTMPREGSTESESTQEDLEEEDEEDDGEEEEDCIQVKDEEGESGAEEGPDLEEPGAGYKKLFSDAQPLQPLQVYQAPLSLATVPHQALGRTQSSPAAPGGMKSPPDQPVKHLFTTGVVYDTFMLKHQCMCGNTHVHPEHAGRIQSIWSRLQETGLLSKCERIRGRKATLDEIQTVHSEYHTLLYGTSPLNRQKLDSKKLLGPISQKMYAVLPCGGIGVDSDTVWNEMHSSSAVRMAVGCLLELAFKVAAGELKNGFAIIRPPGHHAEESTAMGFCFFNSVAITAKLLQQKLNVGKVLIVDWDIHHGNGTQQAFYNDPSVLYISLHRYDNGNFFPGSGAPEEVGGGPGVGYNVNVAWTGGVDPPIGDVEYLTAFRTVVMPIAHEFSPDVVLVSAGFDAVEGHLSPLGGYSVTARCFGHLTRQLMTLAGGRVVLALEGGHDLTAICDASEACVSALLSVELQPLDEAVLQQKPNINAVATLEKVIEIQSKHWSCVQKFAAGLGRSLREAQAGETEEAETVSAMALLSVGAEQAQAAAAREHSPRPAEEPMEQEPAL
T1 sequence (Q13547 whole entry): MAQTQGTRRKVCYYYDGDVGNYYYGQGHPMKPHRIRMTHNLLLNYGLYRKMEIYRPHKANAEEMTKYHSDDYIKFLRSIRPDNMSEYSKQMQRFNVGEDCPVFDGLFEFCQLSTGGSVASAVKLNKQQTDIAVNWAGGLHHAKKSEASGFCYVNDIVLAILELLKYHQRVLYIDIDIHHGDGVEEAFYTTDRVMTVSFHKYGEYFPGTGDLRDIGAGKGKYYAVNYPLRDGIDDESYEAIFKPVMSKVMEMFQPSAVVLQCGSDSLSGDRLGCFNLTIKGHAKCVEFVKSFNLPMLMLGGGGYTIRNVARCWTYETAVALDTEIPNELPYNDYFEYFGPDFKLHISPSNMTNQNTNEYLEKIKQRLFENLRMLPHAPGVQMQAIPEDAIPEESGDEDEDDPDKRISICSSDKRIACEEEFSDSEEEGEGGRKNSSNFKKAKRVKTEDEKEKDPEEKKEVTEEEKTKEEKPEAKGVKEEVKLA

In the case of COc1cccc(-c2nc3c(c(-c4cccc(OC)c4)n2)CCN(C(=O)CCCCCCC(=O)NO)C3)c1 [Compound 8f, 8-(2,4-Bis(3-methoxyphenyl)-5,8-dihydropyrido [3,4-d]pyrimidin-7(6H)-yl)-N-hydroxy-8-oxooctanamide], the IC50 (HDAC1) is reported as 308 nM, the “HDAC5 IC50” value (HDAC5) is reported as “poor activity” and the IC50 (HDAC5) is reported as > 10000 nM. For the same compound, the “HDAC8 IC50” value (HDAC8) was “poor activity”, the IC50 (HDAC8) was 510 nM and the IC50 (HL60) was 3200 nM. The “levels of acetylated α-tubulin” value (acetylated α-tubulin) was “increase the levels of acetylated α-tubulin in a dose-dependent manner; also recorded: elevated the levels of acetylated α-tubulin in a dose-dependent manner”, the “number of cell lines with percent inhibitions > 80%” value [1] was 56 cell lines and the inhibition at 10 µM (CCRF-CEM) was 85%. It also gave an inhibition at 10 µM (K-562) of 90.2%, an inhibition at 10 µM (RPMI-8226) of 88.7% and an inhibition at 10 µM (NCI-H226) of 93.3%. It also gave an inhibition at 10 µM (NCI-H322M) of 89%, an inhibition at 10 µM (NCI-H460) of 95.5% and an inhibition at 10 µM (NCI-H522) of 69.1%. The inhibition at 10 µM (HCC-2998) was 100%, the inhibition at 10 µM (HCT-15) was 100% and the inhibition at 10 µM (SF-539) was 99%. It also gave an inhibition at 10 µM (SNB-19) of 100%, an inhibition at 10 µM (U251) of 100% and an inhibition at 10 µM (MALME-3M) of 100%. It also gave an inhibition at 10 µM (MDA-MB-435) of 95.8%, an inhibition at 10 µM (SK-MEL-28) of 100% and an inhibition at 10 µM (UACC-257) of 98.7%. It also gave an inhibition at 10 µM (OVCAR-5) of 100%, an inhibition at 10 µM (OVCAR-8) of 93.6% and an inhibition at 10 µM (CAKI-1) of 100%. For the same compound, the inhibition at 10 µM (UO-31) was 100%, the inhibition at 10 µM (DU-145) was 89.8% and the inhibition at 10 µM (HS 578T) was 97.8%. The inhibition at 10 µM (BT-549) was 81.9% and the melting point was 117 to 118 °C.
